Key:
[1] = test system: Tyrosine-protein kinase ABL1 (Homo sapiens), P00519 [F317I]; test: Inhibition of human non-phosphorylated ABL1 F317I mutant (S229 to K512 residues) expressed in mammalian expression system at 1 uM by Kinomescan method relative to control
[2] = biological target: cGMP-dependent protein kinase 2 (Homo sapiens) (UniProt Q13237); test: Inhibition of wild-type human partial length PRKG2 (S422 to F762 residues) expressed in mammalian expression system at 1 uM by Kinomescan method relative to control
[3] = biological target: Serine/threonine-protein kinase BRSK2 (Homo sapiens) (UniProt Q8IWQ3); test: Inhibition of wild-type human full length BRSK2 (M1 to L674 residues) expressed in bacterial expression system at 1 uM by Kinomescan method relative to control
[4] = biological target: Mitogen-activated protein kinase 12 (Homo sapiens) (UniProt P53778); test: Inhibition of wild-type human full length p38-gamma (M1 to L367 residues) expressed in mammalian expression system at 1 uM by Kinomescan method relative to control
[5] = test system: Receptor-type tyrosine-protein kinase FLT3 (Homo sapiens), P36888 [D835Y]; test: Inhibition of human partial length FLT3 D835Y mutant (Q580 to Y969 residues) expressed in bacterial expression system at 1 uM by Kinomescan method relative to control
[6] = biological target: Mitogen-activated protein kinase 15 (Homo sapiens) (UniProt Q8TD08); test: Inhibition of wild-type human partial length ERK8 (M1 to P437 residues) expressed in bacterial expression system at 1 uM by Kinomescan method relative to control
Mitogen-activated protein kinase 15 (Homo sapiens), sequence (Q8TD08 whole entry, the tested form may be a part): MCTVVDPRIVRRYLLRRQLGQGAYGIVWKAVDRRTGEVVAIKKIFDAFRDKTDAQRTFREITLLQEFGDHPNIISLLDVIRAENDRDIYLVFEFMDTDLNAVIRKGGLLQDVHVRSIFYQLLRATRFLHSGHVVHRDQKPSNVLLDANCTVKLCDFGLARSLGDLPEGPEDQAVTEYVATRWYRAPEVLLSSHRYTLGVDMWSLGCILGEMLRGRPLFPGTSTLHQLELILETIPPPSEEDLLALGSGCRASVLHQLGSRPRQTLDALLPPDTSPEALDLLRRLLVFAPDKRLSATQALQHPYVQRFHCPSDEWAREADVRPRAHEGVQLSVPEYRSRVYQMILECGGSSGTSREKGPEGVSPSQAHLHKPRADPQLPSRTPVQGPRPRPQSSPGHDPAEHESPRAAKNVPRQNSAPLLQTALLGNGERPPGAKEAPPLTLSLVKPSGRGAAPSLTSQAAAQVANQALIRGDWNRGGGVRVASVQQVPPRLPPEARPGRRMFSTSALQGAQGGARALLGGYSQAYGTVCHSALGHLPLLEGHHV

[7] = biological target: Serine/threonine-protein kinase D1 (Homo sapiens) (UniProt Q15139); test: Inhibition of wild-type human partial length PRKD1 (G551 to E870 residues) expressed in bacterial expression system at 1 uM by Kinomescan method relative to control
[8] = biological target: G protein-coupled receptor kinase 4 (Homo sapiens) (UniProt P32298); test: Inhibition of wild-type human full length GRK4 (M1 to C578 residues) expressed in bacterial expression system at 1 uM by Kinomescan method relative to control
[9] = Terminal half-life in Sprague-Dawley rat at 1 mg/kg, iv; format: ADME, organism-based; settings: in vivo, read-out: beta t1/2 (converted)
[10] = biological target: Tyrosine-protein kinase SYK (Homo sapiens) (UniProt P43405); test: Inhibition of wild-type human partial length SYK (D354 to N635 residues) expressed in bacterial expression system at 1 uM by Kinomescan method relative to control
[11] = biological target: Serine/threonine-protein kinase WNK3 (Homo sapiens) (UniProt Q9BYP7); test: Inhibition of wild-type human partial length WNK3 (M1 to D434 residues) expressed in mammalian expression system at 1 uM by Kinomescan method relative to control
Serine/threonine-protein kinase WNK3 (Homo sapiens), sequence (Q9BYP7 whole entry, the tested form may be a part): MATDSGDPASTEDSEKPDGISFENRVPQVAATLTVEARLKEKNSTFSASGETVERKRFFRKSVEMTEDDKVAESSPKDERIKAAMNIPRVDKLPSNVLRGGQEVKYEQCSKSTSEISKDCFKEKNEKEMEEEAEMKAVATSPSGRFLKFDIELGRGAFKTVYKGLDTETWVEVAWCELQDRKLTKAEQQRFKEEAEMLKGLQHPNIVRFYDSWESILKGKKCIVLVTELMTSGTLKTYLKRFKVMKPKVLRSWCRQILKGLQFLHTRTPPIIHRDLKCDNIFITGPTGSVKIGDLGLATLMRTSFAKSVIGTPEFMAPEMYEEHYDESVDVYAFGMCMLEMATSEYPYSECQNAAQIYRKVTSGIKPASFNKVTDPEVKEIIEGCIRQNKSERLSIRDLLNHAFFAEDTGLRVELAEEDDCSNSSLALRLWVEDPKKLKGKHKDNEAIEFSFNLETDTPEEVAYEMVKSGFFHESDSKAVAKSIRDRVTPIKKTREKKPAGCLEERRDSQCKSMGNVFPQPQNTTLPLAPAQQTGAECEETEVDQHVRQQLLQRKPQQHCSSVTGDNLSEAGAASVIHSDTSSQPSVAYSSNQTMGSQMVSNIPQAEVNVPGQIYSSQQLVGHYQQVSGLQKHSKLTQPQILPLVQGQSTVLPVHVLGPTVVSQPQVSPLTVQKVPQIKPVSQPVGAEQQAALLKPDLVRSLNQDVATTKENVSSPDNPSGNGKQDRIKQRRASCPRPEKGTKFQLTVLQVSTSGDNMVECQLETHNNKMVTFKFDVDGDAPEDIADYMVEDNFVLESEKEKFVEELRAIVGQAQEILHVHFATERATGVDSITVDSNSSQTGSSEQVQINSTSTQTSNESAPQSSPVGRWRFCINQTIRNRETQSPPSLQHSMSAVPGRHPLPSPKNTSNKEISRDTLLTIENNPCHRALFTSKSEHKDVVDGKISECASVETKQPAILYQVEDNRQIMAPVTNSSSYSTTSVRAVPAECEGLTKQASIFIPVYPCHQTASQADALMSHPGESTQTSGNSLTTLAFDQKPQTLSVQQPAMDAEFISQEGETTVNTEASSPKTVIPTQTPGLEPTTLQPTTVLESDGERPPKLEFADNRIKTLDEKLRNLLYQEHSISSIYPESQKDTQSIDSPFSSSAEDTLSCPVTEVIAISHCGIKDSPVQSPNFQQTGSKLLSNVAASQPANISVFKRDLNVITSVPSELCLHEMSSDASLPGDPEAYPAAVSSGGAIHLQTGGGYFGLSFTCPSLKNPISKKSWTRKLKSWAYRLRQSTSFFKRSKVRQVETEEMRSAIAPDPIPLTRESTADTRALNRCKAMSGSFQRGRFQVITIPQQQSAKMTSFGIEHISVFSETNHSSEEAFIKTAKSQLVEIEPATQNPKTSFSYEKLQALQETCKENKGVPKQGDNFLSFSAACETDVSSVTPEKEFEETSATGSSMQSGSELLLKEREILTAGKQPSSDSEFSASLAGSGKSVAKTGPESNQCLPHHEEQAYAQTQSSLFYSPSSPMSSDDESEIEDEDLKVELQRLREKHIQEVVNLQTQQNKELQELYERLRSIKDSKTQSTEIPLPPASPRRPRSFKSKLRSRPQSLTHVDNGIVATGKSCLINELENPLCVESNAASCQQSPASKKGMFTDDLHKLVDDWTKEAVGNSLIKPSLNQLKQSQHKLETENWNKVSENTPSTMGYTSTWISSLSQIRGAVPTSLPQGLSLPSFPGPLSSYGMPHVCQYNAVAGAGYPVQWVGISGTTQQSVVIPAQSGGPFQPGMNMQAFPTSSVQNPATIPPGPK

[12] = biological target: MAP kinase-interacting serine/threonine-protein kinase 1 (Homo sapiens) (UniProt Q9BUB5); test: Inhibition of wild-type human full length MKNK1 (M1 to L424 residues) expressed in mammalian expression system at 1 uM by Kinomescan method relative to control
[13] = biological target: Phosphorylase b kinase gamma catalytic chain, liver/testis isoform (Homo sapiens) (UniProt P15735); test: Inhibition of wild-type human partial length PHKG2 (M1 to W300 residues) expressed in bacterial expression system at 1 uM by Kinomescan method relative to control
[14] = biological target: Mitogen-activated protein kinase 13 (Homo sapiens) (UniProt O15264); test: Inhibition of wild-type human full length p38-delta (M1 to L365 residues) expressed in bacterial expression system at 1 uM by Kinomescan method relative to control
[15] = biological target: Proto-oncogene tyrosine-protein kinase ROS (Homo sapiens) (UniProt P08922); test: Inhibition of wild-type human partial length ROS1 (A1921 to N2240 residues) expressed in bacterial expression system at 1 uM by Kinomescan method relative to control
[16] = biological target: Cyclin-dependent kinase-like 5 (Homo sapiens) (UniProt O76039); test: Inhibition of wild-type human partial length CDKL5 (M1 to S337 residues) expressed in mammalian expression system at 1 uM by Kinomescan method relative to control
[17] = biological target: Mitogen-activated protein kinase kinase kinase 4 (Homo sapiens) (UniProt Q9Y6R4); test: Inhibition of wild-type human partial length MAP3K4 (G1319 to E1608 residues) expressed in bacterial expression system at 1 uM by Kinomescan method relative to control
[18] = biological target: Mitogen-activated protein kinase 10 (Homo sapiens) (UniProt P53779); test: Inhibition of wild-type human partial length JNK3 (V28 to Q422 residues) expressed in mammalian expression system at 10 uM by Kinomescan method relative to control
Mitogen-activated protein kinase 10 (Homo sapiens), sequence (P53779 whole entry, the tested form may be a part): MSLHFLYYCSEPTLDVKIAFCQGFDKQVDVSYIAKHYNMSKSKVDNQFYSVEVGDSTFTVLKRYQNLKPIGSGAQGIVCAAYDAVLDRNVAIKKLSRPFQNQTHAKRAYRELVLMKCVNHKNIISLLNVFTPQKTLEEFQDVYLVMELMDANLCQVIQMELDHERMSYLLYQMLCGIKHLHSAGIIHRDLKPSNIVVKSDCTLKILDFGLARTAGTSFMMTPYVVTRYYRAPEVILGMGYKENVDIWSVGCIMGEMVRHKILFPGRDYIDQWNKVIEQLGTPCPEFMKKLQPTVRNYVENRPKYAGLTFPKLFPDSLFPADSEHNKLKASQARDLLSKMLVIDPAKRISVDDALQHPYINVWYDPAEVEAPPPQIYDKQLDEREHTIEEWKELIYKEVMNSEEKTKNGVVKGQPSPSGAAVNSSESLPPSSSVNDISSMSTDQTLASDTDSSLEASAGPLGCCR

[19] = biological target: Serine/threonine-protein kinase WNK2 (Homo sapiens) (UniProt Q9Y3S1); test: Inhibition of wild-type human partial length WNK2 (V47 to D482 residues) expressed in mammalian expression system at 10 uM by Kinomescan method relative to control
[20] = biological target: Ephrin type-B receptor 6 (Homo sapiens) (UniProt O15197); test: Inhibition of wild-type human partial length EPHB6 (Q634 to P948 residues) expressed in mammalian expression system at 10 uM by Kinomescan method relative to control
[21] = biological target: Serine/threonine-protein kinase TNNI3K (Homo sapiens) (UniProt Q59H18); test: Inhibition of wild-type human full length TNNI3K (M1 to S835 residues) expressed in bacterial expression system at 10 uM by Kinomescan method relative to control
Serine/threonine-protein kinase TNNI3K (Homo sapiens), sequence (Q59H18 whole entry, the tested form may be a part): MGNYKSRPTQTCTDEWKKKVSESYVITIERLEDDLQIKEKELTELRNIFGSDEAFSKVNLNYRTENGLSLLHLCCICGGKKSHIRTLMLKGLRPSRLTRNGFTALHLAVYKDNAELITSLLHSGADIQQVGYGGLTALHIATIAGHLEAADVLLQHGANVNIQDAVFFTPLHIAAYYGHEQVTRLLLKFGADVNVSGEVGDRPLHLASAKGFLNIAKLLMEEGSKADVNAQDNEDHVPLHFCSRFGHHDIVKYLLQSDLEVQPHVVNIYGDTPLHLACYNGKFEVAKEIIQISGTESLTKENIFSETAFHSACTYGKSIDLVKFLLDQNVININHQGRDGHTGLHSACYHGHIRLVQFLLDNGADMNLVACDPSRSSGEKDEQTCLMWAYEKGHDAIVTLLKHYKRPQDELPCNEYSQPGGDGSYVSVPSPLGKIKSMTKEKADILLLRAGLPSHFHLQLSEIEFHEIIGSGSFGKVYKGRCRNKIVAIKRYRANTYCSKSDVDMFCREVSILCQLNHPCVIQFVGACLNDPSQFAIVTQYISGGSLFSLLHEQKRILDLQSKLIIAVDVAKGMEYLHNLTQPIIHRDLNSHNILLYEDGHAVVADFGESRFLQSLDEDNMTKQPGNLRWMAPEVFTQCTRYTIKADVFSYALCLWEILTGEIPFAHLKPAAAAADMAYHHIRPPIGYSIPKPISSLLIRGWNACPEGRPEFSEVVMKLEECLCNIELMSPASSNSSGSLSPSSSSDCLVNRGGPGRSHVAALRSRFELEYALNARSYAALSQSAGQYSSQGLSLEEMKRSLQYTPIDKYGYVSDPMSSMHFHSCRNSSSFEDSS

[22] = biological target: Serine/threonine-protein kinase 32B (Homo sapiens) (UniProt Q9NY57); test: Inhibition of wild-type human full length YANK2 (M1 to S414 residues) expressed in bacterial expression system at 10 uM by Kinomescan method relative to control
[23] = biological target: TRAF2 and NCK-interacting protein kinase (Homo sapiens) (UniProt Q9UKE5); test: Inhibition of wild-type human partial length TNIK (D4 to K311 residues) expressed in bacterial expression system at 10 uM by Kinomescan method relative to control
TRAF2 and NCK-interacting protein kinase (Homo sapiens), sequence (Q9UKE5 whole entry, looked up, the tested form may be a part): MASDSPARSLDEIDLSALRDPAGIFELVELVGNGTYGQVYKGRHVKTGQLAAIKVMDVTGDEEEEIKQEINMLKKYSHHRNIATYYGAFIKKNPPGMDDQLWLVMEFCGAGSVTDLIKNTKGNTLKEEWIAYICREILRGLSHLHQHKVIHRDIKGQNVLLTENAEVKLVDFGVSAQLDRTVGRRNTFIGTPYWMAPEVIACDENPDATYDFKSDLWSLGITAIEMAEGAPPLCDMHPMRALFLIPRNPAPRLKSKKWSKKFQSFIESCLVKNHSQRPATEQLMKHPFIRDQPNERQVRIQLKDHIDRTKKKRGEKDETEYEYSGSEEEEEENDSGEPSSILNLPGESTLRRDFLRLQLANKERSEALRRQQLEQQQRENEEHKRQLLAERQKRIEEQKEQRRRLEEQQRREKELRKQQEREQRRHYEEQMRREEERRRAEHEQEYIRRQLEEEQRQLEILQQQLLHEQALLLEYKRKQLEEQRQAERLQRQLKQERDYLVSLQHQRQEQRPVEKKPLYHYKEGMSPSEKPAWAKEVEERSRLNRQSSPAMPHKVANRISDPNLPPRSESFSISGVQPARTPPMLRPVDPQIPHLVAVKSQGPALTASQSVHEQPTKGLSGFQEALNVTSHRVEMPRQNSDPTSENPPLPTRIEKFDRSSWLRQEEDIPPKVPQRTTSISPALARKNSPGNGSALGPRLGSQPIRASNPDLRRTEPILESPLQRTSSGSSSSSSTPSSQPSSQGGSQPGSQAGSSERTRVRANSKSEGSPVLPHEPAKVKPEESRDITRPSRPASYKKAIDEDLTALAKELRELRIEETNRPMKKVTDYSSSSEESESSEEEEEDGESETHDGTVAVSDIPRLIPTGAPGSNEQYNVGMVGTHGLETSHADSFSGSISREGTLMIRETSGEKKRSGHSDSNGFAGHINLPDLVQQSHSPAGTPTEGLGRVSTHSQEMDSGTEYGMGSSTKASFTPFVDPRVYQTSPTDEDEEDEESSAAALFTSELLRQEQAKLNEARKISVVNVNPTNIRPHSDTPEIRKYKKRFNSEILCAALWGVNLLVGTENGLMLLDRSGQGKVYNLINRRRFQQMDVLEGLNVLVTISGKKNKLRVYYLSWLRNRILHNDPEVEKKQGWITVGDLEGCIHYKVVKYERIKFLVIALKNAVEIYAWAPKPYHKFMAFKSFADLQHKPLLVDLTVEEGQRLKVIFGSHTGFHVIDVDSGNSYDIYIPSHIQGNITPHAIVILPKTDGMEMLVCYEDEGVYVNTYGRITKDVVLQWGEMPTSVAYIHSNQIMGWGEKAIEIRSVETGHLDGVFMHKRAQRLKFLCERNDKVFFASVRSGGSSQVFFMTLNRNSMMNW

[24] = biological target: MAP kinase-activated protein kinase 2 (Homo sapiens) (UniProt P49137); test: Inhibition of wild-type human partial length MAPKAPK2 (V48 to D345 residues) expressed in bacterial expression system at 10 uM by Kinomescan method relative to control
[25] = biological target: Mitogen-activated protein kinase kinase kinase 2 (Homo sapiens) (UniProt Q9Y2U5); test: Inhibition of wild-type human partial length MAP3K2 (S315 to H619 residues) expressed in mammalian expression system at 10 uM by Kinomescan method relative to control
[26] = biological target: Mitogen-activated protein kinase 15 (Homo sapiens) (UniProt Q8TD08); test: Inhibition of wild-type human partial length ERK8 (M1 to P437 residues) expressed in bacterial expression system at 10 uM by Kinomescan method relative to control
[27] = biological target: Serine/threonine-protein kinase PRP4 homolog (Homo sapiens) (UniProt Q13523); test: Inhibition of wild-type human partial length PRP4 (D657 to I1007 residues) expressed in bacterial expression system at 10 uM by Kinomescan method relative to control

**Q.** Which results are given for `O=C(Nc1cccc([C@@H]2CN(c3ncnc4[nH]ccc34)CCN2CCO)c1)Nc1c(F)cccc1N1CCCC1`?
**A.** inhibition [1]: 100%; inhibition [2]: 100%; inhibition [3]: 98%; inhibition [4]: 81%; inhibition [5]: 2.2%; inhibition [6]: 81%; inhibition [7]: 100%; inhibition [8]: 66%; half-life [9]: 2.5 h; inhibition [10]: 97%; inhibition [11]: 61%; inhibition [12]: 88%; inhibition [13]: 100%; inhibition [14]: 100%; inhibition [15]: 97%; inhibition [16]: 100%; inhibition [17]: 100%

**Q.** Which results are given for `O=C(Nc1cccc([C@H]2CCCN(c3ncnc4[nH]ccc34)C2)c1)Nc1ccccc1N1CCCC1`?
**A.** inhibition [18]: 64%; inhibition [19]: 100%; inhibition [20]: 8.6%; inhibition [21]: 100%; inhibition [22]: 100%; inhibition [23]: 26%; inhibition [24]: 100%; inhibition [25]: 27%; inhibition [26]: 99%; inhibition [27]: 17%

Reference: ChEMBL document CHEMBL4387741, “Optimization of novel reversible Bruton's tyrosine kinase inhibitors identified using Tethering-fragment-based screens” (Bioorg Med Chem, 2019)
